Measurements: PubChem BioAssay (NCI)
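Each compound was tested at five concentrations against cells in 96-well plates for 48 hours. TGI denotes the concentration required for complete inhibition of growth.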

Experiments:
Test in all cases: NCI tumour cell line growth inhibition, 48 h
ACHN renal = tested on: ACHN renal
HOP-62 NSCLC = tested on: HOP-62 NSCLC
SK-MEL-2 melanoma = tested on: SK-MEL-2 melanoma
SW-620 colon = tested on: SW-620 colon
M14 melanoma = tested on: M14 melanoma
IGROV1 ovarian = tested on: IGROV1 ovarian
RXF 393 renal = tested on: RXF 393 renal
T-47D breast = tested on: T-47D breast
SF-295 CNS = tested on: SF-295 CNS
BT-549 breast = tested on: BT-549 breast
U251 CNS = tested on: U251 CNS
DU-145 prostate = tested on: DU-145 prostate
SNB-75 CNS = tested on: SNB-75 CNS
MCF7 breast = tested on: MCF7 breast
NCI-H226 lung = tested on: NCI-H226 lung
KM12 colon = tested on: KM12 colon
UO-31 renal = tested on: UO-31 renal
HOP-92 NSCLC = tested on: HOP-92 NSCLC
NCI-H522 lung = tested on: NCI-H522 lung
SF-539 CNS = tested on: SF-539 CNS
SNB-19 CNS = tested on: SNB-19 CNS
A498 renal = tested on: A498 renal
CAKI-1 renal = tested on: CAKI-1 renal
SK-OV-3 ovarian = tested on: SK-OV-3 ovarian
MOLT-4 leukemia = tested on: MOLT-4 leukemia
MDA-MB-231 breast = tested on: MDA-MB-231 breast
OVCAR-4 ovarian = tested on: OVCAR-4 ovarian
OVCAR-5 ovarian = tested on: OVCAR-5 ovarian
MALME-3M melanoma = tested on: MALME-3M melanoma
RPMI-8226 leukemia = tested on: RPMI-8226 leukemia
MDA-MB-435 = tested on: MDA-MB-435
HS 578T breast = tested on: HS 578T breast
UACC-62 melanoma = tested on: UACC-62 melanoma
OVCAR-3 ovarian = tested on: OVCAR-3 ovarian
NCI-H460 lung = tested on: NCI-H460 lung
K-562 leukemia = tested on: K-562 leukemia
HCT-15 colon = tested on: HCT-15 colon
SN12C renal = tested on: SN12C renal
LOX IMVI melanoma = tested on: LOX IMVI melanoma
NCI/ADR-RES ovarian = tested on: NCI/ADR-RES ovarian
COLO 205 colon = tested on: COLO 205 colon
CCRF-CEM leukemia = tested on: CCRF-CEM leukemia
SF-268 CNS = tested on: SF-268 CNS
TK-10 renal = tested on: TK-10 renal
SK-MEL-28 melanoma = tested on: SK-MEL-28 melanoma
PC-3 prostate = tested on: PC-3 prostate
EKVX NSCLC = tested on: EKVX NSCLC
SK-MEL-5 melanoma = tested on: SK-MEL-5 melanoma
HCT-116 colon = tested on: HCT-116 colon
HT29 colon = tested on: HT29 colon
NCI-H23 lung = tested on: NCI-H23 lung
786-0 renal = tested on: 786-0 renal

Measured: TGI

CO[C@@H]1[C@H](O)CC[C@]2(CO2)[C@H]1[C@@]1(C)O[C@@H]1CC=C(C)C
> 200 µM: all assays above
